Tested on: ncRNAs (SEQ ID NO 28-89)
Test: ncRNA arrays of melanocytes, keratinocytes, normal skin, melanoma cell lines and patient samples
Set-up: species or system human
Details: for ncRNA array expression, patient 2: melanoma patient 2 sample compared to normal skin; for ncRNA array expression, patient 3: melanoma patient 3 sample compared to normal skin; for ncRNA array expression, patient 4: melanoma patient 4 sample compared to normal skin; for ncRNA array expression, patient 5: melanoma patient 5 sample compared to normal skin; for ncRNA array expression, patient 6: melanoma patient 6 sample compared to normal skin; for ncRNA array expression, patient 7: melanoma patient 7 sample compared to normal skin; for ncRNA array expression, patient 8: melanoma patient 8 sample compared to normal skin; for ncRNA array expression, patient 9: melanoma patient 9 sample compared to normal skin; for ncRNA array expression, patient 10: melanoma patient 10 sample compared to normal skin; for ncRNA array expression, patient 19: melanoma patient 19 sample compared to normal skin; for ncRNA array expression, patient 20: melanoma patient 20 sample compared to normal skin; for ncRNA array expression, patient 21: melanoma patient 21 sample compared to normal skin; for ncRNA array expression, patient 22: melanoma patient 22 sample compared to normal skin; for ncRNA array expression, patient 23: melanoma patient 23 sample compared to normal skin; for ncRNA array expression, patient 24: melanoma patient 24 sample compared to normal skin; for ncRNA array expression, patient 25: melanoma patient 25 sample compared to normal skin; for ncRNA array expression, patient 26: melanoma patient 26 sample compared to normal skin; for ncRNA array expression, patient 27: melanoma patient 27 sample compared to normal skin; for ncRNA array expression, patient 28: melanoma patient 28 sample compared to normal skin; for ncRNA array expression, patient 29: melanoma patient 29 sample compared to normal skin; for ncRNA array expression, patient 30: melanoma patient 30 sample compared to normal skin
Method: An ncRNA array platform that contains over 10,000 putative (>200 nt) ncRNAs including most of the known ncRNAs in mouse and human was conducted to evaluate ncRNAs within melanoma. Lack of coding potential was estimated by an algorithm that scores various characteristics of protein-coding genes, including open reading frame length, synonymous/non-synonymous base substitution rates and similarity to known proteins. These arrays provide the first generation of tools designed to analyze the dynamic expression of a large subset of ncRNAs in human and mouse and to identify candidate genes for more detailed functional analysis. In addition to the ncRNA content, probes targeting mRNA content from RefSeq are also included, allowing discovery of coordinated expression with associated protein-coding genes. The result of these assays is a list of ncRNA genes (i.e. SEQ ID NO 28-89) and maps of their sequence boundaries. We have profiled total RNA isolated from melanocytes, keratinocytes, normal human skin, melanoma cell lines and melanoma patient samples to identify differentially expressed ncRNAs in cell lines and tissues. ncRNAs expression in all tested samples were compared to either melanocytes or normal skin. We have identified a group of ncRNAs that are specific for (a) melanocytes (b) Keratinocytes (c) Melanoma cell lines (d) Melanoma patients. […] Probe DNA sequences for this array include: AF086032 (SEQ ID NO 107) […] BC071821 (SEQ ID NO 108) […] C AK130193 (SEQ ID NO 109) […] AL109719 (SEQ ID NO 110) […] AF085888 (SEQ ID NO 111) […] T BC033879 (SEQ ID NO 112) […] AA AK024556 (SEQ ID NO 113) […] Probe nomenclature is standard genebank IDs given by NCBI and other organizations.
Keratinocytes specific signatures were subtracted and resultant ncRNAs were validated by qRT-PCR and Northern blots. Results point out the presence of a group of melanoma specific ncRNAs (i.e. SEQ ID NO 28-89).

SEQ ID NO 42 (TAGACATAGGTTAGAGGGGGAACAGTGCTTAAAATTCCATGGAACTAAGATTTTTTTTAT; listed as DNA, chemistry not given here; listed as Homo sapiens)
ncRNA array expression, patient 2: −1.5031
ncRNA array expression, patient 3: −1.941
ncRNA array expression, patient 4: −1.837
ncRNA array expression, patient 5: −1.916
ncRNA array expression, patient 6: −1.445
ncRNA array expression, patient 7: −1.996
ncRNA array expression, patient 8: −2.073
ncRNA array expression, patient 9: −1.562
ncRNA array expression, patient 10: −0.8067
ncRNA array expression, patient 19: −2.231
ncRNA array expression, patient 20: −1.775
ncRNA array expression, patient 21: −1.59
ncRNA array expression, patient 22: −1.26
ncRNA array expression, patient 23: −0.1085
ncRNA array expression, patient 24: −1.66
ncRNA array expression, patient 25: −1.5976
ncRNA array expression, patient 26: −1.684
ncRNA array expression, patient 27: −1.038
ncRNA array expression, patient 28: −1.339
ncRNA array expression, patient 29: −0.5812
ncRNA array expression, patient 30: 1.333

SEQ ID NO 43 (CTTAATCCACATTTGTTTTGAATTTTTCTGATTCCTATAGTACCATACTCTGATGCCTAT; listed as DNA, chemistry not given here; listed as Homo sapiens)
ncRNA array expression, patient 2: −1.3
ncRNA array expression, patient 3: −1.272
ncRNA array expression, patient 4: −1.462
ncRNA array expression, patient 5: −1.269
ncRNA array expression, patient 6: −1.488
ncRNA array expression, patient 7: −1.541
ncRNA array expression, patient 8: −1.511
ncRNA array expression, patient 9: −1.226
ncRNA array expression, patient 10: −1.371
ncRNA array expression, patient 19: −1.531
ncRNA array expression, patient 20: −1.239
ncRNA array expression, patient 21: −1.321
ncRNA array expression, patient 22: −1.451
ncRNA array expression, patient 23: −1.442
ncRNA array expression, patient 24: −1.2517
ncRNA array expression, patient 25: −1.544
ncRNA array expression, patient 26: −1.396
ncRNA array expression, patient 27: −1.339
ncRNA array expression, patient 28: −1.387
ncRNA array expression, patient 29: −1.366
ncRNA array expression, patient 30: −0.1449

SEQ ID NO 44 (AGCCAACTCACGCTTAGGGAGAACTCATACCGCCTAAATATAAAGGCAATTATATATATA; listed as DNA, chemistry not given here; listed as Homo sapiens)
ncRNA array expression, patient 2: −1.843
ncRNA array expression, patient 3: −1.705
ncRNA array expression, patient 4: −1.679
ncRNA array expression, patient 5: −1.807
ncRNA array expression, patient 6: −1.08
ncRNA array expression, patient 7: −1.932
ncRNA array expression, patient 8: −2.019
ncRNA array expression, patient 9: −1.861
ncRNA array expression, patient 10: −0.3103
ncRNA array expression, patient 19: −1.83
ncRNA array expression, patient 20: −1.651
ncRNA array expression, patient 21: −1.7
ncRNA array expression, patient 22: −1.029
ncRNA array expression, patient 23: −1.95
ncRNA array expression, patient 24: −1.768
ncRNA array expression, patient 25: −1.979
ncRNA array expression, patient 26: −1.501
ncRNA array expression, patient 27: −1.744
ncRNA array expression, patient 28: −1.679
ncRNA array expression, patient 29: −1.809
ncRNA array expression, patient 30: 0.9814

SEQ ID NO 45 (ATTTAGAGAACATTTAAATCTGTAAGGAAGAAAATAATAACGACTCACAATTACATCATT; listed as DNA, chemistry not given here; listed as Homo sapiens)
ncRNA array expression, patient 2: −1.688
ncRNA array expression, patient 3: −1.56
ncRNA array expression, patient 4: −1.5912
ncRNA array expression, patient 5: −1.519
ncRNA array expression, patient 6: −0.7528
ncRNA array expression, patient 7: −0.8782
ncRNA array expression, patient 8: −2.042
ncRNA array expression, patient 9: −1.8261
ncRNA array expression, patient 10: 1.065
ncRNA array expression, patient 19: −0.8583
ncRNA array expression, patient 20: −1.797
ncRNA array expression, patient 21: −1.759
ncRNA array expression, patient 22: −1.25
ncRNA array expression, patient 23: 0.2281
ncRNA array expression, patient 24: −1.588
ncRNA array expression, patient 25: −2.096
ncRNA array expression, patient 26: −2.174
ncRNA array expression, patient 27: −1.86
ncRNA array expression, patient 28: −2.069
ncRNA array expression, patient 29: −1.422
ncRNA array expression, patient 30: 0.8792

SEQ ID NO 46 (CTATTGGAGTGCATATAAATTCTTGATAGCACCAGTTCTCAAATATGAGGTGTTAAAAAC; listed as DNA, chemistry not given here; listed as Homo sapiens)
ncRNA array expression, patient 2: 0.198
ncRNA array expression, patient 3: 0.6718
ncRNA array expression, patient 4: 1.187
ncRNA array expression, patient 5: 0.9853
ncRNA array expression, patient 6: 0.04368
ncRNA array expression, patient 7: 0.7142
ncRNA array expression, patient 8: 1.688
ncRNA array expression, patient 9: 5.175
ncRNA array expression, patient 10: 1.916
ncRNA array expression, patient 19: 2.172
ncRNA array expression, patient 20: 0.395
ncRNA array expression, patient 21: 0.7531
ncRNA array expression, patient 22: −0.4275
ncRNA array expression, patient 23: 0.6081
ncRNA array expression, patient 24: 0.8675
ncRNA array expression, patient 25: 1.428
ncRNA array expression, patient 26: 2.919
ncRNA array expression, patient 27: 1.824
ncRNA array expression, patient 28: 1.253
ncRNA array expression, patient 29: 2.278
ncRNA array expression, patient 30: 0.4452

SEQ ID NO 47 (GTATTTGTAATATTTGATTTGCTTTTAGCAGAGAAAACAATAAAAGAATCCAGGAAAAGT; listed as DNA, chemistry not given here; listed as Homo sapiens)
ncRNA array expression, patient 2: −2.442
ncRNA array expression, patient 3: −2.494
ncRNA array expression, patient 4: −2.265
ncRNA array expression, patient 5: −2.234
ncRNA array expression, patient 6: −2.076
ncRNA array expression, patient 7: −2.368
ncRNA array expression, patient 8: −1.927
ncRNA array expression, patient 9: −2.484
ncRNA array expression, patient 10: −1.685
ncRNA array expression, patient 19: −2.485
ncRNA array expression, patient 20: −2.495
ncRNA array expression, patient 21: −2.249
ncRNA array expression, patient 22: −2.41
ncRNA array expression, patient 23: −2.401
ncRNA array expression, patient 24: −2.489
ncRNA array expression, patient 25: −2.453
ncRNA array expression, patient 26: −2.486
ncRNA array expression, patient 27: −2.489
ncRNA array expression, patient 28: −2.481
ncRNA array expression, patient 29: −2.234
ncRNA array expression, patient 30: −1.529

SEQ ID NO 48 (ACTTATATTCAGAGCATGTGGATTGGGACTCTGAAGAACAACTTTATGGTGGACACCTTC; listed as DNA, chemistry not given here; listed as Homo sapiens)
ncRNA array expression, patient 2: 0.9515
ncRNA array expression, patient 3: 3.672
ncRNA array expression, patient 4: 3.353
ncRNA array expression, patient 5: 0.2362
ncRNA array expression, patient 6: −0.1733
ncRNA array expression, patient 7: 0.648
ncRNA array expression, patient 8: 3.309
ncRNA array expression, patient 9: −0.2759
ncRNA array expression, patient 10: 2.286
ncRNA array expression, patient 19: 3.38
ncRNA array expression, patient 20: 1.713
ncRNA array expression, patient 21: 1.144
ncRNA array expression, patient 22: −0.4681
ncRNA array expression, patient 23: −0.4589
ncRNA array expression, patient 24: 2.492
ncRNA array expression, patient 25: 4.7
ncRNA array expression, patient 26: 2.981
ncRNA array expression, patient 27: 4.712
ncRNA array expression, patient 28: 0.2102
ncRNA array expression, patient 29: 0.1927
ncRNA array expression, patient 30: −0.334

Source: patent publication US20110143948A1, “MOLECULAR SIGNATURES AND BIOMARKERS ASSOCIATED WITH MELANOMA AND METHODS OF USE THEREOF” (priority 2008, published 2011)
